Experimental data: the NIST ThermoML archive (doi:10.1021/je060107n)

Assay: mn = molality of the nth substance listed, in mol/kg
Conditions: 101 kPa, Liquid; for viscosity: Capillary tube (Ostwald / Ubbelohde) method; for speed of sound: Linear variable-path acoustic interferometer; for mass density: Pycnometric method

CC(=O)[O-].CC(=O)[O-].[Mg+2] [magnesium acetate] + O
Conditions	mass density [kg/m3]	speed of sound [m/s]	viscosity [mPa·s]
293.15 K, m1 = 0.0414	–	1487.6	–
293.15 K, m1 = 0.0831	–	1497.5	–
293.15 K, m1 = 0.1671	–	1508.3	–
293.15 K, m1 = 0.4247	–	1545.4	–
293.15 K, m1 = 0.646	–	1577.8	–
293.15 K, m1 = 0.8751	–	1609.8	–
293.15 K, m1 = 1.106	–	1639.8	–
293.15 K, m1 = 1.354	–	1665.7	–
293.15 K, m1 = 1.608	–	1697.3	–
293.15 K, m1 = 1.866	–	1725.6	–
293.15 K, m1 = 2.134	–	1754.5	–
293.15 K, m1 = 2.411	–	1782.6	–
293.15 K, m1 = 2.622	–	1798.8	–
293.15 K, m1 = 3.043	–	1832.8	14.98
293.15 K, m1 = 3.437	–	1866.8	24.4
293.15 K, m1 = 3.819	–	1884.3	–
293.15 K, m1 = 4.001	–	–	41.34
293.15 K, m1 = 4.547	–	1917.4	–
293.15 K, m1 = 4.563	–	–	75.04
293.15 K, m1 = 4.929	–	–	97.76
293.15 K, m1 = 5.165	–	1940.8	–
293.15 K, m1 = 5.732	–	1954.7	–
294.9 K, m1 = 2.411	1149	–	–
295.15 K, m1 = 0.4247	1029.4	–	–
295.15 K, m1 = 0.8751	1059.6	–	–
295.4 K, m1 = 0.1671	1010.2	–	–
296 K, m1 = 1.354	1089.6	–	–
296.1 K, m1 = 1.866	1118.6	–	–
297.95 K, m1 = 2.411	1147.7	–	–
298.05 K, m1 = 1.106	1074.8	–	–
298.15 K, m1 = 0.0414	–	1501.7	0.9322
298.15 K, m1 = 0.0831	–	1510.4	0.964
298.15 K, m1 = 0.1671	–	1520.6	1.034
298.15 K, m1 = 0.4247	–	1556.9	1.286
298.15 K, m1 = 0.646	–	1587.3	1.566
298.15 K, m1 = 0.8751	–	1616.2	1.873
298.15 K, m1 = 1.106	–	1645.9	2.31
298.15 K, m1 = 1.354	–	1671.1	2.821
298.15 K, m1 = 1.608	–	1700.3	2.821
298.15 K, m1 = 1.866	–	1727.7	4.32
298.15 K, m1 = 2.134	–	1754.6	5.472
298.15 K, m1 = 2.411	–	1781.9	7.183
298.15 K, m1 = 2.622	–	1797.3	8.354
298.15 K, m1 = 3.043	–	1829.5	12.02
298.15 K, m1 = 3.437	–	1861.2	19.05
298.15 K, m1 = 3.819	–	1878	–
298.15 K, m1 = 4.001	–	–	31.38
298.15 K, m1 = 4.547	–	1908	–
298.15 K, m1 = 4.563	–	–	55
298.15 K, m1 = 4.929	–	–	70.36
298.15 K, m1 = 5.165	–	1929.7	–
298.15 K, m1 = 5.41	–	–	141.2
298.15 K, m1 = 5.732	–	1940.2	–
298.3 K, m1 = 3.043	1175	–	–
298.7 K, m1 = 2.134	1132.2	–	–
298.75 K, m1 = 0.0831	1003.1	–	–
298.8 K, m1 = 3.437	1195.5	–	–
298.85 K, m1 = 0.646	1044	–	–
298.95 K, m1 = 0.8751	1058.5	–	–
299.15 K, m1 = 0.4247	1028.4	–	–
